Patent US11208386B2, “Inhibitors of protein arginine deiminases (PADs) and methods of preparation and use thereof” (University of Massachusetts, priority 2016, dated 2021)

Experiments:
Type in all cases: biochemical
[1] = target: T1, PAD4 (Homo sapiens, UniProt Q9UM07); assay: Inactivation kinetics, PAD4; details: for kinact/KI: a: single kobs determined, b: from a linear fit; for Fold PAD4 Selectivity: kinact/KI relative to least inhibited isozyme (1.0)
T1 construct: made in house
Description: (§1) Inactivation kinetic parameters were determined by incubating PAD1, 2, or 4 (2.0 μM) or PAD3 (5.0 μM) in a pre-warmed (10 min; 37° C.) inactivation mixture (50 mM HEPES, 10 mM CaCl2, and 2 mM DTT, pH 7.6, with a final volume of 60 μL) containing various concentrations of inhibitor. Aliquots were removed at various time points and added to a pre-warmed (10 min, 37° C.) reaction mixture (50 mM HEPES, 50 mM NaCl, 10 mM CaC2, 2 mM DTT, and 10 mM BAEE or 10 mM BAA in the case of PAD3; pH 7.6). After 15 min, reactions were quenched in liquid nitrogen and citrulline production quantified using the COLDER assay. […] In Vitro Labeling of PADs with “Clickable” Probes BB-F-Yne (5u), BB-Cl-Yne (5v) and BIFYne (5w)

[2] = target: T2, PAD1 (Homo sapiens, UniProt Q9ULC6); assay: Inactivation kinetics, PAD1; details: for kinact/KI: a: single kobs determined, b: from a linear fit; for Fold PAD1 Selectivity: kinact/KI relative to least inhibited isozyme (1.0)
T2 construct: made in house
T2 sequence (Q9ULC6 1-663): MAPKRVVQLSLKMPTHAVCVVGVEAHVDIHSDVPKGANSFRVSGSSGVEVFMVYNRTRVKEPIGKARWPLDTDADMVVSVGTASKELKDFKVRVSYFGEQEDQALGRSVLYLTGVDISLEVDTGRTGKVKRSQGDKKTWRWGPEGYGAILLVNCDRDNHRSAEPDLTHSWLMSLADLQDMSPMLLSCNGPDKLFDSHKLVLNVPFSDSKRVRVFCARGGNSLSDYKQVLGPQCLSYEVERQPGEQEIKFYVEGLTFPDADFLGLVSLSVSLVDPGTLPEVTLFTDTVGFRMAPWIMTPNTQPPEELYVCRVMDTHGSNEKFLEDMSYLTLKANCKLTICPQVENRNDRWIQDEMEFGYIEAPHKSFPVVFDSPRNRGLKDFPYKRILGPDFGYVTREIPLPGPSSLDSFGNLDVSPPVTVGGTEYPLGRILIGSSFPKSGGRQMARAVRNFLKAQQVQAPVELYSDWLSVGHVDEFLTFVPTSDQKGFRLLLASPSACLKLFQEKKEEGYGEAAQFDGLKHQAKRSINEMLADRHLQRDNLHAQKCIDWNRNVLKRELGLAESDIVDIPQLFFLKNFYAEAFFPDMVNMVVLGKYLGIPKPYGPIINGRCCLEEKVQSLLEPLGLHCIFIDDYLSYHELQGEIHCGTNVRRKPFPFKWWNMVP
Description: as §1

[3] = target: T3, PAD2 (Homo sapiens, UniProt Q9Y2J8); assay: Inactivation kinetics, PAD2; details: for kinact/KI: a: single kobs determined, b: from a linear fit, other footnotes: from kinact and KI; for Fold PAD2 Selectivity: kinact/KI relative to least inhibited isozyme (1.0); for Ki / kinact: PAD2, table footnote
T3 construct: made in house
T3 sequence (Q9Y2J8 whole entry): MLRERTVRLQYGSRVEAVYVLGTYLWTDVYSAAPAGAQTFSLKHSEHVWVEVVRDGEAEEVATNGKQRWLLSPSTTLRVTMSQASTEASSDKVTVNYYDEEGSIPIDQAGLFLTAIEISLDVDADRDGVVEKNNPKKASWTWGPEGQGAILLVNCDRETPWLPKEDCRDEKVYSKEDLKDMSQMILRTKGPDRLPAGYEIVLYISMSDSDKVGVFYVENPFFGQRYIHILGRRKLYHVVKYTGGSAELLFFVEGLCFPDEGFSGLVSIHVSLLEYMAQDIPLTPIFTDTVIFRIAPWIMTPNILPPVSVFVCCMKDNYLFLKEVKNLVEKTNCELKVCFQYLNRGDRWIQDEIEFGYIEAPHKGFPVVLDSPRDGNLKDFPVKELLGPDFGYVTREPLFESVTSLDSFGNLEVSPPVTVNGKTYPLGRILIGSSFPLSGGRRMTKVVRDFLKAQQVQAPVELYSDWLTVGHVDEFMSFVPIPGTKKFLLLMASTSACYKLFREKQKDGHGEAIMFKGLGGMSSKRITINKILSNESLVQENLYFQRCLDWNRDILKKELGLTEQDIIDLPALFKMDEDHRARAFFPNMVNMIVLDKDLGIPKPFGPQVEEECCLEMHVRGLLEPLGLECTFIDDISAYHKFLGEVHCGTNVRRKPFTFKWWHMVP
Description: as §1

[4] = target: T4, PAD3 (Homo sapiens, UniProt Q9ULW8); assay: Inactivation kinetics, PAD3; details: for kinact/KI: a: single kobs determined; for Fold PAD3 Selectivity: kinact/KI relative to least inhibited isozyme (1.0)
T4 construct: made in house
T4 sequence (Q9ULW8 1-664): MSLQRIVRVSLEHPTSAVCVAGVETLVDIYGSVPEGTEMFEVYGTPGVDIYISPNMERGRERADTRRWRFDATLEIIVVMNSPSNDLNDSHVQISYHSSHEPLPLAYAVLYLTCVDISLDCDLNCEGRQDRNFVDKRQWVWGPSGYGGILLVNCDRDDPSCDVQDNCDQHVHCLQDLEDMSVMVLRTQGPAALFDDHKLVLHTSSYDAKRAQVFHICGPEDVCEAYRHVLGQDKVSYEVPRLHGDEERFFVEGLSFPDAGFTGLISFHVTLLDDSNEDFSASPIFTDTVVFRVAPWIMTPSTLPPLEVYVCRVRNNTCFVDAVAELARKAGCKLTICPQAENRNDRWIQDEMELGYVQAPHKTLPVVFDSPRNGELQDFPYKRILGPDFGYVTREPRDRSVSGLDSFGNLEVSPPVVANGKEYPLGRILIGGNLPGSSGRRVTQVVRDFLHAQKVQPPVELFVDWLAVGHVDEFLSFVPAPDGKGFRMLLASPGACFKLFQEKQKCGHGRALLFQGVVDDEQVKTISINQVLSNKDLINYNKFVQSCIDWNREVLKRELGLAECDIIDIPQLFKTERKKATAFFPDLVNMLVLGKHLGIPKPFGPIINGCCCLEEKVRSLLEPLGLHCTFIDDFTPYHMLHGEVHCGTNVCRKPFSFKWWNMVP
Description: as §1

T1 sequence (Q9UM07 whole entry): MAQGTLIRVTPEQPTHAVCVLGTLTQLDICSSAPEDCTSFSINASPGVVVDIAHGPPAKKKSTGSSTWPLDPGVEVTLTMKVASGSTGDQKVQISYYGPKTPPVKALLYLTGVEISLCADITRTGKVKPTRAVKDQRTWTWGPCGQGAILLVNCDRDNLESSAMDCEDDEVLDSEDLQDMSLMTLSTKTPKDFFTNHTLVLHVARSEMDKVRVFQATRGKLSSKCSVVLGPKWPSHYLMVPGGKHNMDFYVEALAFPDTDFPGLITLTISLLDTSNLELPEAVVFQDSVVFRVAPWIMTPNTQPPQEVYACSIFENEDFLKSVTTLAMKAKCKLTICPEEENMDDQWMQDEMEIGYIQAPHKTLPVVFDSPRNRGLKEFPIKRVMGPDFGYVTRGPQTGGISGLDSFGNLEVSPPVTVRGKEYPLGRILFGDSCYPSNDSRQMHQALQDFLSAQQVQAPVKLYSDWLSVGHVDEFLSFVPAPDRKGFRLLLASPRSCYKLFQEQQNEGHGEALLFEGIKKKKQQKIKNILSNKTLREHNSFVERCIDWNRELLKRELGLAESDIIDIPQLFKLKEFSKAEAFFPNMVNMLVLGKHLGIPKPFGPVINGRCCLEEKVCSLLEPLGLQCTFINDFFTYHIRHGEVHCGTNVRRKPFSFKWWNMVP

SMILES | kinact/KI [1] | Fold PAD4 Selectivity [1] | kinact/KI [2] | Fold PAD1 Selectivity [2] | kinact/KI [3] | Fold PAD2 Selectivity [3] | kinact/KI [4] | Fold PAD3 Selectivity [4] | Ki [3] | kinact [3]
CCn1c([C@H](CCCNC(=N)CF)NC(=O)c2cccc3c2C(=O)NC3)nc2c(OC)cccc21 [Compound 7q, N1-(3-oxoisoindoline)benzoyl-N5-(2-fluoro-1-iminoethyl)-1-(4-methoxy-1-ethyl-benzo[d]imidazol-2-yl)-L-ornithine] | 26.3 M⁻¹ s⁻¹ | 1.0 fold | 998 M⁻¹ s⁻¹ | 38 fold | 845 M⁻¹ s⁻¹ | 32 fold | 26.7 M⁻¹ s⁻¹ | 1.0 fold |  | 
N=C(CCl)NCCC[C@H](NC(=O)c1ccc(-c2ccc(F)cc2)cc1)c1nc2ccccc2[nH]1 [Compound 5p, N1-4′-F-[1,1′-Phenyl]benzol-N5-(2-chloro-1-iminoethyl)-1-(1H-benzo[d]imidazol-2-yl)-L-ornithine] | 280 M⁻¹ s⁻¹ | 3.1 fold | 343 M⁻¹ s⁻¹ | 3.7 fold | 91.7 M⁻¹ s⁻¹ | 1.0 fold | 176 M⁻¹ s⁻¹ | 1.9 fold |  | 
COc1cccc2c1nc([C@H](CCCNC(=N)CCl)NC(=O)c1cccc3c1C(=O)N(C)C3)n2C [8b′] | 106 M⁻¹ s⁻¹ | 1.0 fold | 719 M⁻¹ s⁻¹ | 6.8 fold | 1160 M⁻¹ s⁻¹ | 11 fold | 228 M⁻¹ s⁻¹ | 2.2 fold |  | 
COc1cccc2c1nc([C@H](CCCNC(=N)CF)NC(=O)c1cccc3c1C(=O)N(C)C3)n2C [8a′] | 38.3 M⁻¹ s⁻¹ | 1.1 fold | 996 M⁻¹ s⁻¹ | 30 fold | 3540 M⁻¹ s⁻¹ | 106 fold | 33.5 M⁻¹ s⁻¹ | 1.0 fold | 12.8 µM | 0.0455 s⁻¹
COc1cccc2c1nc([C@H](CCCNC(=N)CCl)NC(=O)c1ccccc1C(=O)O)n2C [Compound 6j] | 235 M⁻¹ s⁻¹ | 1.5 fold | 1120 M⁻¹ s⁻¹ | 7.0 fold | 308 M⁻¹ s⁻¹ | 1.9 fold | 160 M⁻¹ s⁻¹ | 1.0 fold |  | 
Cn1c([C@H](CCCNC(=N)CF)NC(=O)c2ccccc2C(=O)O)nc2ccccc21 [Compound 6c, N1-(2-Carboxyl)benzoyl-N5-(2-fluoro-1-iminoethyl)-1-(1-methyl-benzo[d]imidazol-2-yl)-L-ornithine] | 13.3 M⁻¹ s⁻¹ | 1.0 fold | 538 M⁻¹ s⁻¹ | 40 fold | 197 M⁻¹ s⁻¹ | 15 fold | 17.2 M⁻¹ s⁻¹ | 1.3 fold |  | 
CCN1Cc2cccc(C(=O)N[C@@H](CCCNC(=N)CF)c3nc4c(OC)cccc4n3CC)c2C1=O [Compound 8u, N1-(2-ethyl-3-oxoisoindoline)benzoyl-N5-(2-fluoro-1-iminoethyl)-1-(4-methoxy-1-ethyl-benzo[d]imidazol-2-yl)-L-ornithine] | 46.7 M⁻¹ s⁻¹ | 1.0 fold | 652 M⁻¹ s⁻¹ | 28 fold | 933 M⁻¹ s⁻¹ | 40 fold | 23.3 M⁻¹ s⁻¹ | 2.0 fold | 23.4 µM | 0.0218 s⁻¹
CCN1Cc2cccc(C(=O)N[C@@H](CCCNC(=N)CCl)c3nc4c(OC)cccc4[nH]3)c2C1=O [Compound 8j, N1-(2-ethyl-3-oxoisoindoline)benzoyl-N5-(2-chloro-1-iminoethyl)-1-(4-methoxy-1H-benzo[d]imidazol-2-yl)-L-ornithine] | 308 M⁻¹ s⁻¹ | 1.0 fold | 1530 M⁻¹ s⁻¹ | 5.0 fold | 720 M⁻¹ s⁻¹ | 2.3 fold | 313 M⁻¹ s⁻¹ | 1.0 fold |  | 
Cn1c([C@H](CCCNC(=N)CCl)NC(=O)c2ccc(-c3ccccc3)cc2)nc2ccccc21 [Compound 5h, N1-[1,4′-Phenyl]benzol-N5-(2-chloro-1-iminoethyl)-1-(1-methyl-benzo[d]imidazol-2-yl)-L-ornithine] | 51.8 M⁻¹ s⁻¹ | 1.3 fold | 112 M⁻¹ s⁻¹ | 2.8 fold | 40.5 M⁻¹ s⁻¹ | 1.0 fold | 100 M⁻¹ s⁻¹ | 2.5 fold |  | 
COc1cccc2[nH]c([C@H](CCCNC(=N)CF)NC(=O)c3cccc4c3C(=O)NC4)nc12 [Compound 7i, N1-(3-oxoisoindoline)benzol-N5-(2-fluoro-1-iminoethyl)-1-(4-methoxy-1H-benzo[d]imidazol-2-yl)-L-omithine] | 36.3 M⁻¹ s⁻¹ | 1.0 fold | 1530 M⁻¹ s⁻¹ | 42 fold | 292 M⁻¹ s⁻¹ | 8.0 fold | 138 M⁻¹ s⁻¹ | 3.8 fold |  | 
COc1cccc2c1nc([C@H](CCCNC(=N)CCl)NC(=O)c1cccc3c1C(=O)NC3)n2C [Compound 7l, N1-(3-oxoisoindoline)benzoyl-N5-(2-chloro-1-iminoethyl)-1-(4-methoxy-1-methyl-benzo[d]imidazol-2-yl)-L-ornithine] | 422 M⁻¹ s⁻¹ | 1.3 fold | 1300 M⁻¹ s⁻¹ | 3.9 fold | 1300 M⁻¹ s⁻¹ | 3.9 fold | 332 M⁻¹ s⁻¹ | 1.0 fold |  | 
Cn1c([C@H](CCCNC(=N)CF)NC(=O)c2cccc3c2C(=O)NC3)nc2ccccc21 [Compound 7c] | 48.5 M⁻¹ s⁻¹ | 1.0 fold | 1140 M⁻¹ s⁻¹ | 25 fold | 413 M⁻¹ s⁻¹ | 8.9 fold | 46.7 M⁻¹ s⁻¹ | 1.0 fold |  | 
CCOc1cccc2c1nc([C@H](CCCNC(=N)CF)NC(=O)c1cccc3c1C(=O)NC3)n2C [Compound 7m] | 16.5 M⁻¹ s⁻¹ | 1.0 fold | 1070 M⁻¹ s⁻¹ | 65 fold | 1570 M⁻¹ s⁻¹ | 95 fold | 20 M⁻¹ s⁻¹ | 1.2 fold | 55.2 µM | 0.0868 s⁻¹
CC(C)n1c([C@H](CCCNC(=N)CF)NC(=O)c2cccc3c2C(=O)NC3)nc2ccccc21 [Compound 7g, N1-(3-oxoisoindoline)benzol-N5-(2-fluoro-1-iminoethyl)-1-(1-isopropyl-benzo[d]imidazol-2-yl)-L-ornithine] | 20.5 M⁻¹ s⁻¹ | 2.4 fold | 104 M⁻¹ s⁻¹ | 12 fold | 172 M⁻¹ s⁻¹ | 20 fold | 8.5 M⁻¹ s⁻¹ | 1.0 fold |  | 
